This note sets out measurements from US20250059175A1, “Mutant Pi3k-Alpha Inhibitors And Their Use As Pharmaceuticals” (Prelude Therapeutics Incorporated, priority 2023, published 2025).

Read-outs that look alike come from different tables or passages of the source.

Test [1] deals with phosphorylation of AKT on Ser473 (PI3K pathway) in SKBR3 (PIK3CA WT) cell line. The experiment in a line: PI3K pathway activation assay (pAKT Ser473 HTRF), SKBR3 cells. It counts as cell-based. The following applies: Homo sapiens, SK-BR-3, 2 h, two hours of treatment. How it is done:
(§1) The inhibitory activity of the compounds of the disclosure was evaluated by measuring phosphorylation of AKT on Ser473 as a readout of the PI3K pathway using HTRF (CisBio catalog number: 64AKSPE). These studies were conducted in the T-47D (heterozygous PIK3CA H1047R) and SKBR3 (PIK3CA WT) cell lines. Cells were maintained in a 37° C. incubator at 5% CO2 in the following media: T-47D: RPMI 1640, ATCC© Modification (Gibco, A10491-01) supplemented with 10% v/v FBS (Gibco, 26140-079), 1% penicillin streptomycin (Gibco, 15140-122), and 7.4 ug/mL insulin (MilliporeSigma, I9278); SKBR3: McCoy's 5a (Modified) Medium (Gibco, 16600-082) supplemented with 10% v/v FBS (Gibco, 26140-079). Cells were seeded in 384-well plates at a density of 4,000 cells/well. Compounds dissolved in DMSO were added using a digital dispense (D300E, Tecan) 10-point serial dilution. After two hours of treatment, cells were lysed for thirty minutes and then incubated with detection reagents per HTRF kit material and manufacturer's instructions. Fluorescence signal was measured with a multimode plate reader (Envision 2105, Perkin Elmer). Fluorescent signal was normalized to background and DMSO controls to obtain percent inhibition/activity for each compound.

The subject of test [2] is phosphorylation of AKT on Ser473 (PI3K pathway) in T-47D (heterozygous PIK3CA H1047R) cell line. The test is described as follows: PI3K pathway activation assay (pAKT Ser473 HTRF), T-47D cells. It counts as cell-based. The following applies: T-47D (heterozygous PIK3CA H1047R) cells, two hours of treatment, pAKT Ser473 HTRF; for IC50: read-out: T47D pAKT IC50. How it is done:
as §1

For the molecule `Cc1cc([C@@H](C)Nc2ccc(Cl)nc2C(=O)O)nc(N2C(=O)OC[C@@H]2Cc2cccc(C#N)c2)c1` [Example 48, 6-Chloro-3-(((R)-1-(6-((S)-4-(3-cyanobenzyl)-2-oxooxazolidin-3-yl)-4-methylpyridin-2-yl)ethyl)amino)picolinic acid], the concentration for half-maximal inhibition (IC50) in test [1] is more than 10000 nM; in test [2] (Homo sapiens, T47D, 2 h), less than 100 nM. For the molecule `Cc1cc(C(C)Nc2ccc(F)nc2C(=O)O)nc(N2C(=O)OC[C@@H]2Cc2ccccc2)c1` (single isomer, unassigned) [Example 11], the concentration for half-maximal inhibition (IC50) in test [1] is more than 10000 nM; in test [2] (Homo sapiens, T47D, 2 h), less than 100 nM.

Turning to `Cc1cc([C@@H](C)Nc2ccc(Cl)nc2C(=O)O)nc(N2C(=O)OC[C@@H]2Cc2ccncc2F)c1` [Example 21, 6-Chloro-3-(((R)-1-(6-((S)-4-((3-fluoropyridin-4-yl)methyl)-2-oxooxazolidin-3-yl)-4-methylpyridin-2-yl)ethyl)amino)picolinic acid], the IC50 is 1000 to 10000 nM in test [1] and less than 100 nM in test [2] (Homo sapiens, T47D, 2 h). For `Cc1cc([C@@H](C)Nc2ccc(Cl)nc2C(=O)O)nc(N2C(=O)N(C)C[C@@H]2Cc2ccc(F)cc2)c1` [Example 58, 6-Chloro-3-(((R)-1-(6-((S)-5-(4-fluorobenzyl)-3-methyl-2-oxoimidazolidin-1-yl)-4-methylpyridin-2-yl)ethyl)amino)picolinic acid] the same measures were more than 10000 nM and less than 100 nM. `Cc1cc([C@@H](C)Nc2ccc(Cl)nc2C(=O)O)nc(N2C(=O)OC[C@@H]2Cc2ccc(C(F)(F)F)cc2)c1` [Example 23, 6-Chloro-3-(((R)-1-(4-methyl-6-((S)-2-oxo-4-(4-(trifluoromethyl)benzyl)oxazolidin-3-yl)pyridin-2-yl)ethyl)amino)picolinic acid]: the concentration for half-maximal inhibition (IC50) in test [1] is more than 10000 nM; in test [2] (Homo sapiens, T47D, 2 h) it was less than 100 nM. For `C[C@@H](Nc1ccc(Cl)nc1C(=O)O)c1cc(F)cc(N2C(=O)OC[C@@H]2Cc2ccccc2F)c1` [Example 61, 6-Chloro-3-(((R)-1-(3-fluoro-5-((S)-4-(2-fluorobenzyl)-2-oxooxazolidin-3-yl)phenyl)ethyl)amino)picolinic acid] the same measures were 1000 to 10000 nM and less than 100 nM. Take `COc1cc(C[C@H]2COC(=O)N2c2cc(C)cc([C@@H](C)Nc3ccc(Cl)nc3C(=O)O)n2)c(F)cn1` [Example 29, 6-Chloro-3-(((R)-1-(6-((S)-4-((5-fluoro-2-methoxypyridin-4-yl)methyl)-2-oxooxazolidin-3-yl)-4-methylpyridin-2-yl)ethyl)amino)picolinic acid]: the 50% inhibitory concentration (IC50) in test [1] was more than 10000 nM; in test [2] (Homo sapiens, T47D, 2 h) it was less than 100 nM. On to `Cc1cc([C@@H](C)Nc2ccc(Cl)nc2C(=O)O)nc(N2C(=O)OC[C@@H]2Cc2cccc(C)c2F)c1` [Example 20, 6-Chloro-3-(((R)-1-(6-((S)-4-(2-fluoro-3-methylbenzyl)-2-oxooxazolidin-3-yl)-4-methylpyridin-2-yl)ethyl)amino)picolinic acid], for which the 50% inhibitory concentration (IC50) in test [1] is more than 10000 nM; in test [2] (Homo sapiens, T47D, 2 h), less than 100 nM. Turning to `COc1ccc(C[C@H]2COC(=O)N2c2cc(C)cc([C@@H](C)Nc3ccc(Cl)nc3C(=O)O)n2)c(F)c1` [Example 27, 6-Chloro-3-(((R)-1-(6-((S)-4-(2-fluoro-4-methoxybenzyl)-2-oxooxazolidin-3-yl)-4-methylpyridin-2-yl)ethyl)amino)picolinic acid], the IC50 in test [1] was more than 10000 nM; in test [2] (Homo sapiens, T47D, 2 h), less than 100 nM.

Turning to `Cc1cc([C@@H](C)Nc2ccc(Cl)nc2C(=O)O)nc(N2C(=O)N(C)C[C@@H]2Cc2ccc(F)cc2F)c1` [Example 59, 6-Chloro-3-(((R)-1-(6-((S)-5-(2,4-difluorobenzyl)-3-methyl-2-oxoimidazolidin-1-yl)-4-methylpyridin-2-yl)ethyl)amino)picolinic acid], the concentration for half-maximal inhibition (IC50) is more than 10000 nM in test [1] and 100 to 1000 nM in test [2] (Homo sapiens, T47D, 2 h). Consider `Cc1cc([C@@H](C)Nc2ccc(Cl)nc2C(=O)O)nc(N2C(=O)OC[C@@H]2Cc2ccc(C#N)cc2F)c1` [Example 49, 6-Chloro-3-(((R)-1-(6-((S)-4-(4-cyano-2-fluorobenzyl)-2-oxooxazolidin-3-yl)-4-methylpyridin-2-yl)ethyl)amino)picolinic acid], for which the 50% inhibitory concentration (IC50) in test [1] is more than 10000 nM; in test [2] (Homo sapiens, T47D, 2 h), less than 100 nM.

With `Cc1cc(C(C)Nc2ccc(Br)nc2C(=O)O)nc(N2C(=O)OC[C@@H]2Cc2ccccc2)c1` (single isomer, unassigned) [Example 18], the IC50 in test [1] was more than 10000 nM; in test [2] (Homo sapiens, T47D, 2 h), less than 100 nM.

Regarding `Cc1cc([C@@H](C)Nc2ccc(Cl)nc2C(=O)O)nc(N2C(=O)OC[C@@H]2Cc2ccc(F)cc2)c1` [Example 24, 6-Chloro-3-(((R)-1-(6-((S)-4-(4-fluorobenzyl)-2-oxooxazolidin-3-yl)-4-methylpyridin-2-yl)ethyl)amino)picolinic acid], the IC50 in test [1] was more than 10000 nM; in test [2] (Homo sapiens, T47D, 2 h), less than 100 nM. In turn, `Cc1cc(C(C)Nc2ccc(Cl)nc2C(=O)O)nc(N2C(=O)OC[C@@H]2Cc2ccccc2)c1` (single isomer, unassigned) [Example 12] showed an IC50 in test [1] of 1000 to 10000 nM. Moreover, the “T47D pAKT IC50” value in test [2] is “++ ++”. In the case of `Cc1cc([C@@H](C)Nc2ccc(Cl)nc2C(=O)O)nc(N2C(=O)OC[C@@H]2Cc2cn(C)nc2F)c1` [Example 36, 6-Chloro-3-(((R)-1-(6-((S)-4-((3-fluoro-1-methyl-1H-pyrazol-4-yl)methyl)-2-oxooxazolidin-3-yl)-4-methylpyridin-2-yl)ethyl)amino)picolinic acid], in test [2] (Homo sapiens, T47D, 2 h), the IC50 was 100 to 1000 nM. `Cc1cc([C@@H](C)Nc2ccc(Cl)nc2C(=O)O)nc(N2C(=O)N(C)C[C@@H]2Cc2ccccc2)c1` [Example 60, 3-(((R)-1-(6-((S)-5-Benzyl-3-methyl-2-oxoimidazolidin-1-yl)-4-methylpyridin-2-yl)ethyl)amino)-6-chloropicolinic acid]: the concentration for half-maximal inhibition (IC50) is 1000 to 10000 nM in test [1] and less than 100 nM in test [2] (Homo sapiens, T47D, 2 h). In the case of `Cc1cc([C@@H](C)Nc2ccc(Cl)nc2C(=O)O)nc(N2C(=O)OC[C@@H]2Cc2cnn(C)c2)c1` [Example 32, 6-Chloro-3-(((R)-1-(4-methyl-6-((S)-4-((1-methyl-1H-pyrazol-4-yl)methyl)-2-oxooxazolidin-3-yl)pyridin-2-yl)ethyl)amino)picolinic acid], the IC50 in test [2] (Homo sapiens, T47D, 2 h) lay in the range of 100 to 1000 nM. Regarding `Cc1cc([C@@H](C)Nc2ccc(Cl)nc2C(=O)O)nc(N2C(=O)OC[C@@H]2Cc2cccn3nccc23)c1` [Example 45, 6-Chloro-3-(((R)-1-(4-methyl-6-((S)-2-oxo-4-(pyrazolo[1,5-α]pyridin-4-ylmethyl)oxazolidin-3-yl)pyridin-2-yl)ethyl)amino)picolinic acid], in test [2], the IC50 was less than 100 nM.

For `Cc1cc([C@@H](C)Nc2ccc(Cl)nc2C(=O)O)nc(N2C(=O)OC[C@@H]2Cc2ccc(F)cc2F)c1` [Example 26, 6-Chloro-3-(((R)-1-(6-((S)-4-(2,4-difluorobenzyl)-2-oxooxazolidin-3-yl)-4-methylpyridin-2-yl)ethyl)amino)picolinic acid], the half-inhibitory concentration (IC50) in test [1] was more than 10000 nM; in test [2] (Homo sapiens, T47D, 2 h) it was less than 100 nM.

For the molecule `Cc1cc([C@@H](C)Nc2ccc(Cl)nc2C(=O)O)nc(N2C(=O)CCC2Cc2ccccc2)c1` (stereo partly drawn) [Example 55, 3-(((1R)-1-(6-(2-benzyl-5-oxopyrrolidin-1-yl)-4-methylpyridin-2-yl)ethyl)amino)-6-chloropicolinic acid], the concentration for half-maximal inhibition (IC50) in test [2] (Homo sapiens, T47D, 2 h) lay within 1000 to 10000 nM. With `CC(Nc1ccc(F)nc1C(=O)O)c1cc(F)cc(N2C(=O)OC[C@@H]2Cc2ccccc2)c1` (stereo partly drawn) [Example 5, 3-((1-(3-((S)-4-Benzyl-2-oxooxazolidin-3-yl)-5-fluorophenyl)ethyl)amino)-6-fluoropicolinic acid], the IC50 in test [2] (Homo sapiens, T47D, 2 h) fell in the range of 100 to 1000 nM. For `Cc1cc([C@@H](C)Nc2ccc(Cl)nc2C(=O)O)nc(N2C(=O)OC[C@@H]2Cc2nn(C)c3ccccc23)c1` [Example 38, 6-Chloro-3-(((R)-1-(4-methyl-6-((S)-4-((1-methyl-1H-indazol-3-yl)methyl)-2-oxooxazolidin-3-yl)pyridin-2-yl)ethyl)amino)picolinic acid], in test [2] (Homo sapiens, T47D, 2 h), the IC50 fell in the range of 100 to 1000 nM.
